What all share (format): in vivo, C57BL/6 mice
Data set [1] deals with mouse model of ConA hepatitis. Briefly: Survival rate of hepatitis mouse model of ConA. To be noted: ConA 25 mg/kg i.v.; drug by gavage (compatibility 7 g/kg, Cimicifugae rhizoma 2 g/kg, total phenolic acid 300 mg/kg crude drug, isoferulic acid 5 mg/kg); observed at 96 h; model group 20%. The text has this: Test materials: ConA was purchased from Sigma; isoferulic acid was purchased from Tianjin Fangfang Technology Co., Ltd.
Animals: C57BL/6 mice, purchased from Beijing Huafukang Biotechnology Co., Ltd.
Grouping: 50 C57BL/6 mice, male, 18-20 g, after 1 day of adaptive breeding, the mice were randomly divided into 5 groups of 10 in each group: ConA model group, Cimicifugae rhizoma compatibility group, Cimicifugae rhizoma group, Cimicifugae rhizoma total phenolic acid group and isoferulic acid group.
Model preparation and drug administration: 150 mg of ConA powder were weighed and dissolved in 40 mL of sterile PBS and left at room temperature for 1 to 2 hours; the solution was intermittently shaken gently to mix well. Low temperature ultrasound promoted dissolution (no more than 5 min each time) and avoided excessive foaming. After the solution was fully dissolved, the volume was adjusted to 50 mL, prepared to a concentration of 3 mg/mL, and filtered under pressure with a 0.45 μm filter. Mice were given a single intravenous injection at 25 mg/kg, with 100 μL per mouse. […]

The next data set concerns CIA arthritis mice. Briefly: Micro-CT of joint structure / bone damage in CIA mice. Conditions: 21 days after second immunization, MEAN ± SEM. The text has this: (§1) Test materials and animals: Consistent with Experimental Example 3. Anti-type II collagen antibody ELISA kit was purchased from Chondrex, Cytokine & Chemokine 36-Plex Mouse ProcartaPlex™ Panel 1A cytokine and chemokine detection kit was purchased from ThermoFisher.
(§2) Model preparation and drug administration: the drug dosage of each treatment group was the same as that of Experimental Example 3. After 21 days of the second immunization, the mice were anesthetized.
(1) Micro-CT technology was used to examine the effect of each drug group on the joint structure of CIA mice. After taking 3 mice from each group, the right hind limbs were taken immediately after neck dissection and fixed in 4% neutral formalin. After 2-3 days of fixation, a micro-CT scan was performed using a live animal imaging system. Extraction site: extracted the data of the area above the tibial plaque plate of the right hind limb of the mouse. 3 sets of data were taken. Size selection: the upper part of the tibial plaque plate (0.25*0.25*0.25); measurement indicators of the extracted bones: bone density, bone volume, bone volume fraction and number of bone trabeculae.

Data set [2] relates to anti-type II collagen antibody. Briefly: Serum anti-type II collagen antibody content in CIA mice (ELISA). To be noted: 21 days after second immunization.
Description: as §1, §2
(2) The effects of each drug group on the anti-type II collagen antibody content in the serum of CIA mice were measured. Seven mice from each group were examined; peripheral blood was collected and separated from serum. Anti-type II collagen antibodies were detected with Elisa.
A general note: An ELISA detects its analyte on a solid surface through an enzyme-linked reagent.

Another data set can be described thus: Body weight of CIA mice. Conditions: day 21 of the second immunization; MEAN ± SEM. The text has this:
The test materials and animals were the same as those in Experimental Example 3.
Model preparation and administration: same as in Experimental Example 3. On day 21 of the second immunization, the mice were weighed.

Data set [3] has as its system serum cytokines TNF-α, IL-12, IL-6, MCP-1, IFN-γ. As to the kind of experiment: Serum cytokine secretion in mouse model of ConA hepatitis. To be noted: MEAN ± SEM. The protocol:
The test materials and animals were the same as those in Experimental Example 1.
Grouping: C57BL/6 mice, male, 18-20 g, after 1 day of adaptive breeding, the mice were randomly divided into 6 groups: normal control group; ConA model group, Cimicifugae rhizoma compatibility group, Cimicifugae rhizoma group, Cimicifugae rhizoma total phenolic acid group and isoferulic acid group.
Model preparation and drug administration: except the normal control group, mice were injected intravenously once at a dose of ConA 15 mg/kg. The dosages of each drug group were the same as those of Experimental Example 1.
(3) The effects of drugs in each treatment group on serum cytokine secretion in ConA mice were examined. Six mice from each group. Peripheral blood was collected 3 hours after ConA injection and serum was separated to detect the secretion of cytokines TNF-α, IL-12, IL-6 and MCP-1. Serum was separated 10 hours after ConA injection to detect cells factor IFN-γ secretion.

In data set [4] the test system is joint tissue cytokines IL-9, IL-18 and MIP-2. Briefly: Joint tissue cytokines in CIA arthritis mice (multi-factor detection). To be noted: MEAN ± SEM.
Description: as §1, §2
(3) The effects of each drug group on cytokine secretion in serum and joint tissues of CIA mice were measured. Seven mice from each group were examined; peripheral blood was collected and separated from serum. Cytokines in serum were detected by multiple factors: IFN-γ, IL-6, IL-9, IL-12, IL-17A, IP-10, MCP-1, MCP-3. MIP-1α, MIP-1β, Eotaxin, and G-CSF; the right hind limb knees, joints and claws were taken and stored in liquid nitrogen for quick freezing, then homogenized and extracted protein. Multi-factor detection of cytokines in tissues: IL-9, IL-18 and MIP-2 secretion.

Setting [5] is: serum 3 hours after ConA injection.

The source of these data is patent US20200108032A1, “USE OF ISOFERULIC ACID, ISOFERULIC ACID-CONTAINING TRADITIONAL CHINESE MEDICINE EXTRACT AND CIMICIFUGAE RHIZOMA” (BEIJING DITAN HOSPITAL, CAPITAL MEDICAL UNIVERSITY, priority 2017, published 2020).

Consider `COc1ccc(C=CC(=O)O)cc1O` [isoferulic acid, 3-hydroxy-4-methoxycinnamic acid], for which the “survival rate of mice” value in data set [1] worked out at 60%. The same compound had a Bone density with CIA arthritis mice (area above tibial plate of right hind limb) of 9.5 ± 1.5 mg/cc. Moreover, in the data set on CIA arthritis mice (right hind limb), the Bone volume was 0.0014 ± 0.0005 mm 3, the Bone volume fraction amounted to 0.095 ± 0.034 and the number of trabeculae is 2.042 ± 0.572 1/mm. Besides, in data set [2], the “Anti-type II collagen antibody” value came to 9610 ± 664 Units/ml. For the same compound, the Body weight in “Body weight of CIA mice” amounted to 21.6 ± 0.4 g. In data set [3] (setting [5]), this compound displayed an IL-6 of 1422 ± 214.2 pg/mL, an IL-12 of 183.7 ± 33.4 pg/mL, an MCP-1 of 5708 ± 145.5 pg/mL and a TNF-α of 260.4 ± 119.5 pg/mL. In data set [3] (serum 10 hours after ConA injection), this compound returned an IFN-γ of 574 ± 70.4 pg/mL. Further, in data set [4], the “Joint tissue IL-9” value is on record as 3.2 ± 1.5 pg/mg, the “Joint tissue IL-18” value turned out to be 111.1 ± 125 pg/mg and the “Joint tissue MIP-2” value came out at 61.2 ± 45.8 pg/mg.
